Data as given in patent publication US20230331803A1, “CO-AGONISTS OF THE GLP-1 AND AMYLIN RECEPTORS” (priority 2020, published 2023).
Read-outs that look alike come from different tables or passages of the source. Starred links: 1 amine or outer side, 2 acyl side, 3 side chain; linkers in the order of their positions; H or OH if unused. Non-standard residues stand in square brackets, D forms with d. Groups on a side chain read outwards from the residue. *: point of attachment. Butyryl(4-SO2NHCO(CH2)16Tz) = O=C(CCCCCCCCCCCCCCCCc1nnn[nH]1)NS(=O)(=O)CCCC(=O)*; C20 diacid = O=C(O)CCCCCCCCCCCCCCCCCCC(=O)*; C18 diacid = O=C(O)CCCCCCCCCCCCCCCCC(=O)*; C16 diacid = O=C(O)CCCCCCCCCCCCCCC(=O)*; γGlu = O=C(O)[C@H](CCC(=O)[*:2])N[*:1]; Desaminohistidyl = O=C(CCc1c[nH]cn1)*; X2 = O=C(CCCCCCCCCCCCCCCCc1nnn[nH]1)*; εLys = N[C@@H](CCCCN[*:1])C(=O)[*:2]; Trx = NC[C@H]1CC[C@H](C(=O)O)CC1; AEEA = NCCOCCOCC(=O)O; Aib = CC(C)(N)C(=O)O

Columns and labels:
[1] = target: T1, human amylin receptor (hAmyR3) (Homo sapiens, UniProt O60896+P30988); test: Human amylin receptor in vitro potency assay (CRE-luciferase reporter, BHK cells); type: cell-based;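 also: BHK cells expressing human calcitonin receptor plus RAMP3 (amylin-3 receptor) with a CRE-luciferase reporter, agonist activity read as luminescence from cAMP-driven transcription, 7-point serial dilutions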
T1 construct: host or cells: BHK cells (Hollex-1 line: human calcitonin receptor (a) + CRE-Luc), further transfected with human RAMP3

[2] = target: T2, human GLP-1 receptor (Homo sapiens, UniProt P43220); test: Human GLP-1 receptor in vitro potency assay (CRE-luciferase reporter, BHK cells); type: cell-based
T2 construct: expressed in transfected cells; host or cells: BHK (Baby Hamster Kidney) cells, clone BHK 467-12A KZ-10, stably transfected, with CRE-luciferase reporter
Protocol: It is thus possible to measure GLP-1 receptor activity using a CRE-luciferase reporter gene introduced into Baby Hamster Kidney (BHK) cells co-expressing the GLP-1 receptor.
Cells were aliquoted and stored at -180° C. until use.
Plates were sealed and incubated at room temperature with gentle shaking for 30 minutes while protected from light. Luminescence was detected on a luminescence plate reader e.g. a Synergy 2 (BioTek).

[3] = Table 4a, BHK hAmyR3/CRE-Luc cells, 3 hours, read-out: Human AmyR3 potency [EC50 (pM)]
[4] = Table 4a, BHK cells expressing human GLP-1R, CRE-Luc, 3 hours, read-out: Human GLP-1R potency [EC50 (pM)]

T1 sequence (P30988 25-474): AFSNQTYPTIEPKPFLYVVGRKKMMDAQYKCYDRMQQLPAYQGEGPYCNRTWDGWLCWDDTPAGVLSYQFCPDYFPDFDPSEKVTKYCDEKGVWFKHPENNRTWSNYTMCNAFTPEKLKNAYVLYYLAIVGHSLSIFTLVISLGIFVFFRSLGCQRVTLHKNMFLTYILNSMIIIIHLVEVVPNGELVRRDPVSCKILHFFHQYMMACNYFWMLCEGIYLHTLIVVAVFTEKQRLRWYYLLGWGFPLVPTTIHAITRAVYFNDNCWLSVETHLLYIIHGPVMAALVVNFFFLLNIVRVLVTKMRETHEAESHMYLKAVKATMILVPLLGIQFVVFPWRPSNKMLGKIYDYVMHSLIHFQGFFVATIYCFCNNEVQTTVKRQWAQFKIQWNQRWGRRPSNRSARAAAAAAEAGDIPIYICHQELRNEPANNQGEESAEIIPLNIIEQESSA
T1 sequence (O60896 24-148): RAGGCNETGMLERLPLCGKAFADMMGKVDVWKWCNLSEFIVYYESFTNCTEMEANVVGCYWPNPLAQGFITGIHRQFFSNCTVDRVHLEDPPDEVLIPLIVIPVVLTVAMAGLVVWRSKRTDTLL
T2 sequence (P43220 24-463): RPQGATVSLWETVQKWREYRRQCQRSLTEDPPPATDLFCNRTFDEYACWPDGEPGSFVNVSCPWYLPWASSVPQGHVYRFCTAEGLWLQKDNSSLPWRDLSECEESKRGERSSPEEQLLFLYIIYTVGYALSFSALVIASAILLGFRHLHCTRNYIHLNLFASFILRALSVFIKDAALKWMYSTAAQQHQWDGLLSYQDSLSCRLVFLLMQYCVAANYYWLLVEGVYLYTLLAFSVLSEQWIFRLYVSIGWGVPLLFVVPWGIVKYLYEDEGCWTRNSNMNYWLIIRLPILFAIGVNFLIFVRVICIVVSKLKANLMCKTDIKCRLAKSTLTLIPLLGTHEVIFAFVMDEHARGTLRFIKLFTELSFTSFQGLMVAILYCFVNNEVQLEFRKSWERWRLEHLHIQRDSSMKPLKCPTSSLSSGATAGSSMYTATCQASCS

Row | Molecule | EC50 [1, 3] | EC50 [2, 4] | further results
1 | H-HGEGTFTSDVSSYLEEQAARK([AEEA-AEEA-γGlu-C18 diacid])FIEWLVRGK([AEEA-AEEA-γGlu-C18 diacid])GEGGEASELSTAALGRLSAELHELATLPRTETGSGSP-NH2 [Compound 0090] | 70.9 pM | 32.6 pM | 
2 | H-H[Aib]EGTFTSDVSSYLEEQAAREFIEWLVRGRK([AEEA-AEEA-γGlu-Trx-C20 diacid])EAEAEASELSTAALGRLSAELHELATLPRTETGSGSP-NH2 [Compound 0179] | 35.9 pM | 8.8 pM | 
3 | H-H[Aib]EGTFTSDVSSYLEEQAAREFIAWLVRGRK([AEEA-AEEA-AEEA-AEEA-γGlu-C20 diacid])GGGGEASELSTAALGRLSAELHELATLPRTETGSGSP-NH2 [Compound 0663] | 12.6 pM | 3.2 pM | 
4 | H[Aib]EGTFTSDVSSYLEEQAARK([AEEA-AEEA-γGlu-C18 diacid])FIAWLVRGK([AEEA-AEEA-γGlu-C18 diacid])GGEASELSTAALGRLSAELHELATLPRTETGSGSP-NH2 [Compound 0127] | 63.9 pM | 7.1 pM | 
5 | H-H[Aib]EGTFTSDVSSYLEGQAAK([AEEA-AEEA-γGlu-C18 diacid])EFIAWLVRGRGQEPGQAPEASELSTAALGRLSAELHELATLPRTETGSGSP-NH2 [Compound 0026] | 14 pM | 8.8 pM | 
6 | H-H[Aib]EGTFTSDVSSYLEEQAARK([AEEA-AEEA-γGlu-C18 diacid])FIAWLVRGRGGGGGEASELSTAALGRLSAELHELATLPRTETGSGSP-NH2 [Compound 0639] | 4.6 pM | 1.5 pM | 
7 | H-H[Aib]EGTFTSDVSSYLEGQAAKEIFAWLVRGRK([εLys-AEEA-AEEA-γGlu-C18 diacid])GGEASELSTAALGRLSAELHELATLPRTETGSGSP-NH2 [Comparator compound 0164, reference compound] |  |  | EC50 ([1]; Table 4c, further comparator compounds, read-out: Human AmyR3 potency [EC50 (pM)]): 29.6 pM; EC50 ([2]; Table 4c, further comparator compounds): 852 pM; Ability to agonise the GLP-1 receptor, in words ([2]; Tables 4a-4c): impaired their ability to agonise (activate) the GLP-1 receptor
8 | H-H[Aib]EGTFTSDVSSYLEEQAARK([AEEA-AEEA-γGlu-C18 diacid])FIEWLVRGK([AEEA-AEEA-γGlu-C18 diacid])GEGGEASELSTAALGRLSAELHELATLPRTETGSGSP-NH2 [Compound 0089] | 65.5 pM | 5.7 pM | 
9 | H-H[Aib]EGTFTSDVSSYLEEQAARK([AEEA-AEEA-γGlu-C16 diacid])FIAWLVRGRGGGGGEASELSTAALGRLSAELHK([AEEA-AEEA-γGlu-C16 diacid])LATLPRTETGSGSP-NH2 [Compound 0509] | 29.9 pM | 7.1 pM | 
10 | H-H[Aib]EGTFTSDVSSYLEEQAARK([γGlu-C18 diacid])FIAWLVRGRGGGGGGGGK([γGlu-C18 diacid])EASELSTAALGRLSAELHELATLPRTETGSGSP-NH2 [Compound 0160] | 27.3 pM | 11.9 pM | 
11 | H[Aib]EGTFTSDVSSYLEEQAARK([AEEA-AEEA-γGlu-C16 diacid])FIAWLVRGK([AEEA-AEEA-γGlu-C16 diacid])GGGEASELSTAALGRLSAELHELATLPRTETGSGSP-NH2 [Compound 0076] | 46.4 pM | 1.7 pM | 
12 | H-HAEGTFTSDVSSYLEEK([AEEA-AEEA-γGlu-C20 diacid])AAREFIEWLVRGRGEASELSTAALGRLSAELHELATLPRTETGSGSP-NH2 [Compound 0474] | 21.8 pM | 2.9 pM | 
13 | H-H[Aib]EGTFTSDVSSYLEEQAAREFIEWLVRGRK([εLys-AEEA-AEEA-γGlu-Trx-C20 diacid])EASELSTAALGRLSAELHELATLPRTETGSGSP-NH2 [Compound 0438] | 27.5 pM | 11.8 pM | 
14 | H-H[Aib]EGTFTSDK([AEEA-AEEA-γGlu-C16 diacid])SSYLEEQAAREFIAWLVRGRGGGGGEASELSTAALGRLSAELHELK([AEEA-AEEA-γGlu-C16 diacid])TLPRTETGSGSP-NH2 [Compound 0260] | 41.8 pM | 11.9 pM | 
15 | H-H[Aib]EGTFTSDVSSYLEGQAAREFIAWLVRGRGQEPGQAPK([AEEA-AEEA-γGlu-C18 diacid])EASELSTAALGRLSAELHELATLPRTETGSGSP-NH2 [Compound 0085] | 55.8 pM | 2.2 pM | 
16 | HWEGTFTSD-K([2-[2-[2-[[2-[2-[2-[[(4S)-4-Carboxy-4-[[4-[(19-Carboxynonadecanoylamino)Methyl]Cyclohexanecarbonyl]Amino]Butanoyl]Amino]Ethoxy]Ethoxy]Acetyl]Amino]Ethoxy]Ethoxy]Acetyl])-SSYLEEQAAREFIEWLVRGRGEASELSTAALGRLSAELHELATLPRTETGSGSP-amide [Compound 0272] | 11.3 pM | 9.2 pM | 
17 | H-H[Aib]EGTFTSDVSSYLEEQAAREFIAWLVRGRK([AEEA-AEEA-γGlu-X2])GGGGEASELSTAALGRLSAELHELATLPRTETGSGSP-NH2 [Compound 0655] | 11.4 pM | 3 pM | 
18 | H-H[Aib]EGTFTSDVSSYLEEQAARK(Butyryl(4-SO2NHCO(CH2)16Tz))FIAWLVRGRGEASELSTAALGRLSAELHELATLPRTETGSGSP-NH2 [Compound 0125] | 12.2 pM | 8 pM | 
19 | CC[C@H](C)[C@H](NC(=O)[C@H](Cc1ccccc1)NC(=O)[C@H](CCC(=O)O)NC(=O)[C@H](CCCCNC(=O)COCCOCCNC(=O)COCCOCCNC(=O)CC[C@H](NC(=O)CCCCCCCCCCCCCCCCC(=O)O)C(=O)O)NC(=O)[C@H](C)NC(=O)[C@H](C)NC(=O)[C@H](CCC(N)=O)NC(=O)CNC(=O)[C@H](CCC(=O)O)NC(=O)[C@H](CC(C)C)NC(=O)[C@H](Cc1ccc(O)cc1)NC(=O)[C@H](CO)NC(=O)[C@H](CO)NC(=O)[C@@H](NC(=O)[C@H](CC(=O)O)NC(=O)[C@H](CO)NC(=O)[C@@H](NC(=O)[C@H](Cc1ccccc1)NC(=O)[C@@H](NC(=O)CNC(=O)[C@H](CCC(=O)O)NC(=O)C(C)(C)NC(=O)[C@@H](N)Cc1c[nH]cn1)[C@@H](C)O)[C@@H](C)O)C(C)C)C(=O)N[C@@H](C)C(=O)N[C@@H](Cc1c[nH]c2ccccc12)C(=O)N[C@@H](CC(C)C)C(=O)N[C@H](C(=O)N[C@@H](CCCNC(=N)N)C(=O)NCC(=O)N[C@@H](CCCNC(=N)N)C(=O)NCC(=O)NCC(=O)N[C@@H](CCC(N)=O)C(=O)N[C@@H](CCC(=O)O)C(=O)N[C@@H](CCCCNC(=O)COCCOCCNC(=O)COCCOCCNC(=O)CC[C@H](NC(=O)CCCCCCCCCCCCCCCCC(=O)O)C(=O)O)C(=O)NCC(=O)N[C@@H](CCC(N)=O)C(=O)N[C@@H](CCC(=O)O)C(=O)N1CCC[C@H]1C(=O)N[C@@H](CCC(=O)O)C(=O)N[C@@H](C)C(=O)N[C@@H](CO)C(=O)N[C@@H](CCC(=O)O)C(=O)N[C@@H](CC(C)C)C(=O)N[C@@H](CO)C(=O)N[C@H](C(=O)N[C@@H](C)C(=O)N[C@@H](C)C(=O)N[C@@H](CC(C)C)C(=O)NCC(=O)N[C@@H](CCCNC(=N)N)C(=O)N[C@@H](CC(C)C)C(=O)N[C@@H](CO)C(=O)N[C@@H](C)C(=O)N[C@@H](CCC(=O)O)C(=O)N[C@@H](CC(C)C)C(=O)N[C@@H](Cc1c[nH]cn1)C(=O)N[C@@H](CCC(=O)O)C(=O)N[C@@H](CC(C)C)C(=O)N[C@@H](C)C(=O)N[C@H](C(=O)N[C@@H](CC(C)C)C(=O)N1CCC[C@H]1C(=O)N[C@@H](CCCNC(=N)N)C(=O)N[C@H](C(=O)N[C@@H](CCC(=O)O)C(=O)N[C@H](C(=O)NCC(=O)N[C@@H](CO)C(=O)NCC(=O)N[C@@H](CO)C(=O)N1CCC[C@H]1C(N)=O)[C@@H](C)O)[C@@H](C)O)[C@@H](C)O)[C@@H](C)O)C(C)C [Compound 0057] |  |  | EC50 [1]: 165 pM; EC50 [2]: 59 pM
20 | H-H[Aib]EGTFTSDVSSYLEGQAAREFIAWLVRGK([AEEA-AEEA-γGlu-C18 diacid])GEGEGEEASELSTAALGRLSAELHELATLPRTETGSGSP-NH2 [Compound 0009] | 49.5 pM | 7.9 pM | 
21 | H-H[Aib]EGTFTSDVSSYLEEQAAREFIAWLVRGRK([AEEA-AEEA-γGlu-C18 diacid])GGEASELSTAALGRLSAELHELATLPRTETGSGSP-NH2 [Compound 0114] | 17.5 pM | 1 pM | 
22 | H-H[Aib]EGTFTSDVSSYLEEQAARK([AEEA-AEEA-γGlu-C18 diacid])FIEWLVRGRK([AEEA-AEEA-γGlu-C18 diacid])GGEASELSTAALGRLSAELHELATLPRTETGSGSP-NH2 [Compound 0129] | 23.5 pM | 1.2 pM | 
23 | H-H[Aib]EGTFTSDVSSYLEEQAAREFIAWLVRK([AEEA-AEEA-γGlu-C16 diacid])RGGGGGASELSTAALGRLSK([AEEA-AEEA-γGlu-C16 diacid])ELHELATLPRTETGSGSP-NH2 [Compound 0297] | 46 pM | 30.2 pM | 
24 | Desaminohistidyl-AEGTFTSDVSSYLEEQAAREFIAWLVRGRK([AEEA-AEEA-γGlu-C18 diacid])EASELSTAALGRLSAELHELATLPRTETGSGSP-NH2 [Compound 0051] | 19.5 pM | 14.3 pM | 
25 | H-H[Aib]EGTFTSDVSSYLEGQAAK([AEEA-AEEA-γGlu-C18 diacid])EFIAWLVRGRGGGGGGGGGGGGGEASELSTAALGRLSAELHELATLPRTETGSGSP-NH2 [Compound 0092] | 10.9 pM | 18.5 pM | 
26 | H-HAEGTFTSDK([AEEA-AEEA-γGlu-C16 diacid])SSYLEEK([AEEA-AEEA-γGlu-C16 diacid])AAREFIEWLVRGRGEASELSTAALGRLSAELHELATLPRTETGSGSP-NH2 [Compound 0475] | 66.8 pM | 70.4 pM | 
